Experiments:
[1] = test system: HL-1 cells; assay: Immunofluorescence staining of hypertrophy related proteins in HL-1 cells; assay type: cell-based, murine; details: FIG. 12
Excerpt: (§1) Immunofluorescent staining of HL-1 cells can be carried out in a method similar to that previously described (Tevosian et al., 1999), except that 0.5% CHAPS (Fisher) can be used instead of Triton X-100. Briefly, HL-1 cells grown on 2-well slides (Lab-Tek) are initially preserved with Sprayfix cytology fixative. To prepare for staining, the slides are washed in EtOH and water, and then briefly washed with PBS. Cells were fixed with cold acetone, rinsed with PBS, and permeabilized by three ten minute washes with 0.5% CHAPS/PBS. Next, the cells are blocked overnight with 5% milk/10% goat serum/PBS. The permeabilization step is then repeated prior to incubation with the primary antibody in 10% goat serum/0.5% CHAPS/PBS with the antibodies and dilutions listed below. After a one-hour incubation with the primary antibodies, the slides are washed three times in the 10% goat serum/0.5% CHAPS/PBS, then three times in 0.5% CHAPS/PBS. Secondary antibodies, as described below, can be incubated for one-hour with 1% BSA/0.5% CHAPS/PBS. After washing with 0.5% CHAPS/PBS the cells are stained for five minutes with 4,6-diamidine-2-phenylidole-dihydrochloride (DAPI Nucleic Acid Stain; Invitrogen) and cover slips are mounted with Prolong Gold anti-fade reagent (Invitrogen). The following antibody combinations can be used: rabbit anti-mouse VDR (sc-1008; Santa Cruz Biotech; 1:100 dilution), rabbit anti-mouse ANP (AB 5490; Chemicon; 1:50 dilution), and rabbit anti-mouse c-myc (sc-764; Santa Cruz Biotech; 1:100 dilution), all followed by FITC conjugated goat anti-rabbit (AP 307F; Chemicon; 1:400). Mouse monoclonal anti-myotrophin (V 11220, BD Transduction Laboratory; 1:50) followed by FITC conjugated goat anti-mouse (F-0257; Sigma; 1:128), and goat anti-mouse calbindin-9 (sc-18038. Santa Cruz Bio; 1:100) followed by FITC conjugated rabbit anti-goat (AP 106F; Chemicon; 1:100). Slides can be analyzed on an Olympus BX 51 immunofluorescence microscope and photomicrographs can be recorded as digital images.
as §1, with “incubation” for “incubation with the primary antibodies,”, “The following antibody combinations can be used: rabbit anti-mouse VDR (sc-1008; Santa Cruz Biotech; 1:100 dilution), rabbit anti-mouse ANP (AB 5490; Chemicon; 1:50 dilution), and rabbit anti-mouse c-myc (sc-764; Santa Cruz Biotech; 1:100 dilution), all followed by FITC conjugated goat anti-rabbit (AP 307F; Chemicon; 1:400). Mouse monoclonal anti-myotrophin (V 11220, BD Transduction Laboratory; 1:50) followed by FITC conjugated goat anti-mouse (F-0257; Sigma; 1:128), and goat anti-mouse calbindin-9 (sc-18038. Santa Cruz Bio; 1:100) followed by FITC conjugated rabbit anti-goat (AP 106F; Chemicon; 1:100).” left out

[2] = test system: HL-1 cells; assay: HL-1 cell growth and proliferation; assay type: cell-based, murine; details: compared to HL-1 cells incubated with vehicle, FIG. 10
Procedure: HL-1 cells are obtained from Dr. W. C. Claycomb, Louisiana State University Medical Center, New Orleans, La. HL-1 cells (passages 55-75) are maintained at 37° C. under a 5% C02/air atmosphere in Claycomb medium (JRL Bioscience) supplemented with 10% fetal bovine serum, 0.29 mg/mL L-glutamine, 100 units/mL penicillin, 100 μg/mL streptomycin (all Gibco), and 0.1 mM norepinephrine (Sigma). The medium can be replaced approximately every 24 hours. HL-1 cells were grown in T25 culture flasks which were precoated overnight with 2 μg/cm fibronectin/0.02% gelatin solution. […]
HL-1 cells are grown in 10% FCS-supplemented medium or medium supplemented with 1% ITS and treated with either 0.1% EtOH (control vehicle), 1, 10 or 100 nM 1,25(OH) 2D3, 100 nM PMA or 1 mM PMA or 1 mM 24,25(OH) 2D3 or 25(OH)D3 for 2 or 4 days. At each time point the myocytes are removed from the dish using a Trypsin-EDTA solution (Sigma Chemical, St. Louis, Mo.) and counted using a Coulter Counter (Model ZF, Coulter Electronics, Hialeah, Fla.). Protein levels can be determined after 2 days using the Bradford protein assay (14). […] The HL-1 cells can then be examined on a flow cytometer (Coulter Elite, Coulter Electronics, Hialeah, Fla.) and cell cycle distribution can be determined by using MODFIT (v. 5.2).

For `C=C1CC[C@H](O)C/C1=C/C=C1\CCC[C@]2(C)[C@@H]([C@H](C)CCCC(C)C)CC[C@@H]12` [Vitamin D3], the “expression of ANP” value [1] was “inhibited or reduced the expression”, the “expression of VDR” value [1] was “increased the expression” and the expression of c-myc [1] was “inhibited or reduced the expression”. The “expression of calbindin 9” value [1] was “inhibited or reduced the expression”, the expression of myotrophin [1] was “increased the expression” and the “inhibition of HL-1 growth / cellular proliferation” value [2] was “dose dependent inhibition of cellular proliferation”. For the same compound, the “inhibition of HL-1 growth / cellular proliferation” value ([2]; listed as Vit D) was “dose dependent inhibition of HL-1 growth”.

Source: patent publication US20100190187A1, “Screening Assays for Antagonists and Analyses of Cardiac Hypertrophy” (The Regents of the University of Michigan Office of …, priority 2006, published 2010)
